{"source": "patent US4959182A", "about": "“Method and compositions providing enhanced chemiluminescence from 1,2-dioxetanes” (priority 1989, dated 1990)", "key": {"[1]": {"experiment": "Fluorescence of ester cleavage product / self-quenching of fluorescer", "format": "physicochemical", "source_text": "However, the chemiluminescent decomposition of this dioxetane can be conveniently triggered at room temperature by removal of the silyl-protecting with fluoride ion to generate the unstable, aryloxide form which cleaves to yield intense blue light.\nIn general the molar ratio of the dioxetane to fluorescent compound is between about 1,000 to 1 and 1 to 1 whether in solution or in a solid composition."}, "firefly luciferase": {"tested_on": "firefly luciferase", "details": "cationic surfactant; cited from earlier work"}, "Urease": {"tested_on": "Urease", "experiment": "Triggering of hydroxy-substituted dioxetane 2a with urease in fluorescent micelles", "format": "biochemical", "details": "10 μL of 3×10^-3 M 2a, CTAB and 3, room temperature", "description": "5. Enzymatic Triggering of Hydroxy-Substituted Dioxetane 2a with Urease in the Prescence of Fluorescent Micelles. A solution was prepared using 160 mg of CTAB and 12.4 mg of fluorescein surfactant 3 in 200 mL of distilled water. A urea solution was made by dissolving 200 mg of urea in 100 mL of distilled water with EDTA added to give a final concentration of 0.4 mM. The substrate solution for the urease experiments was obtained by mixing 10mL of each stock solution.\nExperiments were carried out with urease (Sigma) by incubation at room temperature for periods of 0.5 to 2 hours. […] The intensity of the luminescence provided a measure of the concentration of urease."}, "[2]": {"format": "physicochemical", "description": "Rates for thermal decomposition of the stable dioxetanes were monitored by the decay of chemiluminescence of aerated solutions. A cylindrical Pyrex vial equipped with magnetic stir bar was filled with 3-4 mL of the reaction solvent, sealed with a Teflon-lined screw cap and placed in the thermostatted sample block of the chemiluminescence-measuring luminometer. Temperature control was provided by an external circulating water bath. Appropriate values for the instrument gain and optical slit size were selected. […]. The vial was sealed with a Teflon-lined screw cap to prevent evaporation when high temperatures were used. Measurement of the signal was begun by opening the shutter. The chemiluminescent decay was generally recorded for at least three half-lives. Calculation of the first-order rate constant (k) from the In (Intensity) vs. time data was performed by a computer program utilizing a standard least-squares treatment. The correlation coefficient (r) was typically at least 0.999 and k varied less than 5% between replicate samples.\nActivation parameters for decomposition of the dioxetanes were calculated from plots of In k vs. 1/T (Arrhenius eq.) or In k/t vs. 1/T (Eyring eq.) by a standard least-squares linear regression analysis.\nActivation Energies for Thermal Decomposition of Dioxetanes"}, "[3]": {"experiment": "Base-triggered chemiluminescence of dioxetanes 2a/2b in DMSO, water, CTAB micelles and micelles with fluorescent co-surfactant", "source_text": "The chemiluminescence quantum yield (.PHI.CL) for the decomposition of dioxetanes is defined as the ratio of einsteins of chemiluminescence emitted to moles of dioxetane decomposed. Sufficient energy is released during the reaction from the reaction enthalpy (ΔHR) plus the Arrhenius activation energy (Ea) to populate the singlet excited state of one of the carbonyl cleavage products. Therefore, the maximum quantum yield is 1.0. Another parameter of interest is the chemiexcitation quantum yield (.PHI.CE) which is defined as the ratio of excited states formed to dioxetane decomposed. The chemiexcitation quantum yield is related to the chemiluminescence quantum yield via the fluorescence quantum yield of the dioxetane cleavage (.PHI.F) through the equation: .phi.CL =.phi.CE X .phi.F.\nThe same procedure as those employed in the measurement of the decay kinetics was used for the determination of chemiluminescence quantum yields with the following modifications. An accurately measured aliquot of a dioxetane stock solution of known concentration was added to 3 mL of the pre-thermostatted organic solvent or aqueous buffer. The reaction was then triggered by adding the appropriate chemical reagent or enzyme. The total light intensity was integrated by a photon-counting luminometer using an RCA A-31034A gallium-arsenide PMT cooled to -78° C.\nSpectra of the chemiluminescence from chemically or enzymatcally triggered dioxetanes were obtained by conducting the reaction in a 1-cm square quartz cuvette in the sample compartment of a Spex Fluorolog spectrofluorometer at ambient temperature. Correction for the decay of the chemiluminescence intensity during the wavelength scan was made by accumulating the spectrum in a ratio mode so that the observed spectrum was divided by the signal from an auxiliary detector (EMI 9781B) which measures the total signal as a function of time. The monochromator bandpass was typically 18 nm. For weakly emitting samples, several identical scans were performed and added together to improve the signal-to-noise ratio.\n1. Triggering the Chemiluminescence of Hydroxy-Substituted Dioxetane 2a with Base.\n2. […] Cationic surfactants such as cetyltrimethylammonium bromide (CTAB) can be used to increase rates for chemical triggering of chemiluminescence from appropriately substituted dioxetanes in aqueous solution. […] The dioxetane is solubilized in the micelles formed by the surfactant and NaOH is added to initiate the chemiluminescence. […] Typically, the experiments were carried out with [2b]=9.1×10^-5 M, [CTAB]=2×10^-3 M, and [OH^- ]=9.1×10^-5 M at 37° C.\nSimilar experiments were conducted with the benzothiazamide surfactant 4. […] Enzymatic Triggering of Phosphate-Substituted Dioxetane 2c."}, "[4]": {"tested_on": "Alkaline Phosphatase from Bovine Intestinal Mucosa", "experiment": "Alkaline phosphatase triggering of xanthenone-derived phosphate dioxetane", "format": "biochemical", "description": "Triggering experiments were conducted using alkaline phosphatase from bovine intestinal mucosa suspension of 5.3 mg of protein (1100 units/mg protein) per mL in 3.2 M (NH4)2 SO4 ]and the phosphate-protected dioxetane at pH 10.3 in 0.75 M 2-amino-2-methyl- 1-propanol buffer. […]. […] The rate of decay of the emission is a function of enzyme concentration while the total light emission is independent of the enzyme concentration because of turnover of the enzyme. The chemiluminescence spectrum for the phosphatase-catalyzed decomposition was obtained at room temperature in the buffer solution."}, "[5]": {"format": "physicochemical", "remark": "listed apart in the source"}, "[6]": {"details": "thermal decomposition in xylene"}}, "note": "Read-outs that look alike come from different tables or passages of the source."}
{"smiles": "CCCCCCCCCCCCCC(=O)Nc1ccc2c(c1)C(=O)OC21c2ccc(O)cc2Oc2cc(O)ccc21", "note": "[compound 3]", "values": [{"measurement": "self-quenching when used alone in solution", "setting": "[1]; no CTAB", "result": "quenches itself when used alone in solution"}]}
{"smiles": "CCCCCCCCCCCCCCCC[N+](C)(C)C.[Br-]", "note": "[CTAB, cetyltrimethylammonium bromide]", "values": [{"measurement": "inhibition of the catalytic activity of the luciferase", "setting": "firefly luciferase", "result": "complete inhibition"}]}
{"smiles": "COC1(c2cccc(O)c2)OOC12C1CC3CC(C1)CC2C3", "note": "(stereo not drawn) [2a, 4-(3-Hydroxyphenyl)-4-methoxyspiro[1,2-dioxetane-3,2'-adamantane]]", "values": [{"measurement": "luminescence after incubation with urease", "setting": "Urease", "result": "produced chemiluminescence"}, {"measurement": "half-life", "setting": "[2]; in xylene, 25° C., read-out: t1/2 at 25° C. (converted)", "result": 1500, "unit": "days"}, {"measurement": "Ea", "setting": "[2]; [6]", "result": 28.3}, {"measurement": "Log A", "setting": "[2]; [6]", "result": 12.5}, {"measurement": "k(sec^-1) at 25° C.", "setting": "[2]; thermal decomposition in xylene, 25° C.", "result": "5.38e-09", "unit": "s⁻¹"}, {"measurement": "period of chemiluminescence decay", "setting": "[3]; 10^-4 M, excess tetra-n-butylammonium hydroxide, DMSO, room temperature", "result": "several minutes"}, {"measurement": "chemiluminescence quantum yield (.PHI.CL)", "setting": "[3]; base in DMSO", "result": 0.25}, {"measurement": "light yield (chemiluminescence quantum yield)", "setting": "[3]; base in water", "result": "8.9×10^-6"}, {"measurement": "emission maximum for the chemiluminescence", "setting": "[3]; tetra-n-butylammonium hydroxide in DMSO, room temperature", "result": 470, "unit": "nm"}]}
{"smiles": "COC(=O)c1cccc(O)c1", "note": "[methyl 3-hydroxylbenzoate]", "values": [{"measurement": "fluorescence quantum yield (.PHI.^F)", "setting": "[1]; ester cleavage product under conditions of fluoride triggering", "result": 0.44}]}
{"smiles": "O=P(O)(O)Oc1ccc2c(c1)Oc1ccccc1C21OOC12C1CC3CC(C1)CC2C3", "note": "(stereo not drawn)", "values": [{"measurement": "period of chemiluminescence decay", "setting": "[4]; 4.2×10^-6 M dioxetane, 1.8 μg/mL protein, pH 10.3, 37° C.", "result": 3, "unit": "min"}, {"measurement": "total light emission vs dioxetane concentration", "setting": "[4]; pH 10.3, 37° C.", "result": "linearly dependent on the dioxetane concentration"}, {"measurement": "background luminescence from non-enzymatic hydrolysis, of enzymatic", "setting": "[4]; pH 10.3 buffer, over 3 min, 37° C.", "result": 0.2, "unit": "%"}, {"measurement": "half-life", "setting": "[5]; 25° C.", "result": 4380, "unit": "days"}, {"measurement": "spontaneous decomposition in aqueous buffers", "setting": "[5]; aqueous buffers", "result": "very slow spontaneous decomposition"}, {"measurement": "activation energy", "setting": "[5]; thermal", "result": 30.7, "unit": "kcal/mol"}]}
